In US12419937B2, “High concentration alpha-glucosidase compositions for the treatment of Pompe disease” (Amicus Therapeutics, Inc., priority 2012, dated 2025):

Assays:
[1] = molecular target: T1, recombinant human GAA (Myozyme®) (Homo sapiens, UniProt P10253); assay: SYPRO Orange thermal stability assay (heat-induced denaturation); assay type: physicochemical; details: pH 7.4; 100 μM 1-DNJ-HCl; vs Myozyme® alone
T1 construct: purchased Genzyme Corp
Source text: The thermal stability assay utilizes heat to induce protein denaturation, which is monitored using a SYPRO Orange dye that fluoresces upon binding to hydrophobic amino acids (which are not exposed in a folded protein).
FIG. 5 depicts the results of a thermal stability assay that utilizes heat to induce protein denaturation, which is monitored using a SYPRO Orange dye that fluoresces upon binding to hydrophobic amino acids (which are not exposed in a folded protein).
Denaturation is monitored using a SYPRO Orange dye that fluoresces upon binding to hydrophobic amino acids (which are not exposed in a folded protein).
The thermal stability was performed at pH 7.4 for two formulations, which corresponds to the pH of the ER.

[2] = Circulating rhGAA after subcutaneous Myozyme® with or without DNJ (FIG. 14); assay type: in vivo; details: DNJ co-formulated with 20 mg/kg Myozyme® vs 20 mg/kg Myozyme® without DNJ
[3] = Circulating half-life and quadriceps uptake of Myozyme® in rats, tail vein (Example 11); assay type: in vivo, Sprague-Dawley rats; details: 30 mg/kg DNJ with 10 mg/kg Myozyme® via tail vein
Method: Sprague-Dawley rats were administered 10 mg/kg Myozyme® or 30 mg/kg DNJ mixed with 10 mg/kg Myozyme® via tail vein. GAA activity was measured in plasma and quadriceps tissue. Baseline GAA activity in quadriceps was subtracted (˜16 nmol/mg protein/hr) from the measured GAA following GAA or DNJ and GAA administration.

[4] = molecular target: T1, recombinant human GAA (Myozyme®); assay: Residual GAA enzyme activity in buffer at 37° C. (4-MU-α-glucose); assay type: biochemical; details: 50 μM 1-DNJ, plasma pH (7.4), 24 hours
Method: GAA activity was evaluated to assess the ability of an ASSC of GAA to prolong the activity of the rhGAA over time. Myozyme® (45 nM) was incubated in pH 7.4 or pH 5.2 buffer with or without 50 μM 1-DNJ at 37° C. over 24 hours. Samples were assayed for GAA enzyme activity using 4-MU-α-glucose at 0, 3, 6 and 24 hours and the residual GAA activity was expressed as % of initial activity.
Residual GAA activity was determined for four formulations:
Activity was measured, based on the % of initial activity (t=0) over 24 hours. Samples were assayed for GAA enzyme activity based on the hydrolysis of the fluorogenic substrate 4-MU-α-glucose at 0, 3, 6 and 24 hours. The GAA activity was expressed as % of initial activity, i.e. residual activity.

[5] = molecular target: T1, recombinant human GAA (Myozyme®); assay: SYPRO Orange protein folding monitored over 24 hours at 37° C.; assay type: physicochemical; details: 100 μM 1-DNJ-HCl, plasma pH
Method: FIG. 2B depicts a parallel SYPRO Orange thermal stability experiment to determine if the loss of enzyme activity shown in FIG. 2A, particularly the loss of Myozyme® activity at ER pH (7.4), correlates with protein unfolding and denaturation.
In order to determine if loss of initial enzyme activity is correlated to failure to maintain a proper conformation, a SYPRO Orange thermal stability experiment was performed on the samples above as generally described in Example 1. […] Based on this experiment, the % of GAA folded was estimated and plotted in FIG. 2B.

[6] = Aggregation of 25 mg/mL Myozyme® (Example 10); assay type: physicochemical; details: 1 mM DNJ with 25 mg/mL Myozyme®; pH 7.4; 37° C.; 4 weeks; listed as DNJ
Method: Aggregation was assessed after a 4 week incubation period.
A liquid formulation comprising DNJ and GAA was prepared by dissolving DNJ in water to achieve a concentration of 10 mM DNJ. GAA was reconstituted in 1.8 ml water, and dialyzed overnight in phosphate buffered-saline (pH 7.4). […] of DNJ (10 mM) was then be added to 400 microliters of GAA, such that the GAA was at a concentration of 25 mg/ml.
25 mg/mL Myozyme® was incubated with or without 1 mM DNJ in phosphate-buffered saline at pH 7.4. Aggregation of Myozyme® was assessed after incubation for 4 weeks at 37° C.

OC[C@H]1NC[C@H](O)[C@@H](O)[C@@H]1O [1-DNJ, 1-deoxynojirimycin]
stability of Myozyme® (heat required to denature) on addition of the ASSC [1]: significantly increased | circulating levels of rhGAA [2]: increased the circulating levels of rhGAA | tissue uptake of Myozyme® in quadriceps [3]: increased | effect on loss of GAA enzyme activity [4]: ameliorates the loss of GAA enzyme activity | effect on GAA denaturation and loss of enzyme activity [5]: can prevent GAA denaturation and loss of enzyme activity | aggregation of Myozyme® [6]: reduces aggregation
